Target: T1, human Fatty Acid Synthase (Homo sapiens, UniProt P49327)
T1 construct: made in house
Experiment: Human FAS enzyme assay (decrease in NADPH fluorescence)
Assay type: biochemical
Details: for inhibition at 100 µM: % inhibition at a concentration of 100 μmolar
Procedure, shortened: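 In-house human FAS was preincubated with compound and NADPH for 15 min at room temperature in 0.1 M Tris pH 7.5 with EDTA, glutathione and BSA. Malonyl CoA and acetyl CoA (500 μM and 150 μM in the added mix) were then added for 60 min. IC50 came from time-zero-subtracted NADPH fluorescence (340/460 nm).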

T1 sequence (P49327 whole entry): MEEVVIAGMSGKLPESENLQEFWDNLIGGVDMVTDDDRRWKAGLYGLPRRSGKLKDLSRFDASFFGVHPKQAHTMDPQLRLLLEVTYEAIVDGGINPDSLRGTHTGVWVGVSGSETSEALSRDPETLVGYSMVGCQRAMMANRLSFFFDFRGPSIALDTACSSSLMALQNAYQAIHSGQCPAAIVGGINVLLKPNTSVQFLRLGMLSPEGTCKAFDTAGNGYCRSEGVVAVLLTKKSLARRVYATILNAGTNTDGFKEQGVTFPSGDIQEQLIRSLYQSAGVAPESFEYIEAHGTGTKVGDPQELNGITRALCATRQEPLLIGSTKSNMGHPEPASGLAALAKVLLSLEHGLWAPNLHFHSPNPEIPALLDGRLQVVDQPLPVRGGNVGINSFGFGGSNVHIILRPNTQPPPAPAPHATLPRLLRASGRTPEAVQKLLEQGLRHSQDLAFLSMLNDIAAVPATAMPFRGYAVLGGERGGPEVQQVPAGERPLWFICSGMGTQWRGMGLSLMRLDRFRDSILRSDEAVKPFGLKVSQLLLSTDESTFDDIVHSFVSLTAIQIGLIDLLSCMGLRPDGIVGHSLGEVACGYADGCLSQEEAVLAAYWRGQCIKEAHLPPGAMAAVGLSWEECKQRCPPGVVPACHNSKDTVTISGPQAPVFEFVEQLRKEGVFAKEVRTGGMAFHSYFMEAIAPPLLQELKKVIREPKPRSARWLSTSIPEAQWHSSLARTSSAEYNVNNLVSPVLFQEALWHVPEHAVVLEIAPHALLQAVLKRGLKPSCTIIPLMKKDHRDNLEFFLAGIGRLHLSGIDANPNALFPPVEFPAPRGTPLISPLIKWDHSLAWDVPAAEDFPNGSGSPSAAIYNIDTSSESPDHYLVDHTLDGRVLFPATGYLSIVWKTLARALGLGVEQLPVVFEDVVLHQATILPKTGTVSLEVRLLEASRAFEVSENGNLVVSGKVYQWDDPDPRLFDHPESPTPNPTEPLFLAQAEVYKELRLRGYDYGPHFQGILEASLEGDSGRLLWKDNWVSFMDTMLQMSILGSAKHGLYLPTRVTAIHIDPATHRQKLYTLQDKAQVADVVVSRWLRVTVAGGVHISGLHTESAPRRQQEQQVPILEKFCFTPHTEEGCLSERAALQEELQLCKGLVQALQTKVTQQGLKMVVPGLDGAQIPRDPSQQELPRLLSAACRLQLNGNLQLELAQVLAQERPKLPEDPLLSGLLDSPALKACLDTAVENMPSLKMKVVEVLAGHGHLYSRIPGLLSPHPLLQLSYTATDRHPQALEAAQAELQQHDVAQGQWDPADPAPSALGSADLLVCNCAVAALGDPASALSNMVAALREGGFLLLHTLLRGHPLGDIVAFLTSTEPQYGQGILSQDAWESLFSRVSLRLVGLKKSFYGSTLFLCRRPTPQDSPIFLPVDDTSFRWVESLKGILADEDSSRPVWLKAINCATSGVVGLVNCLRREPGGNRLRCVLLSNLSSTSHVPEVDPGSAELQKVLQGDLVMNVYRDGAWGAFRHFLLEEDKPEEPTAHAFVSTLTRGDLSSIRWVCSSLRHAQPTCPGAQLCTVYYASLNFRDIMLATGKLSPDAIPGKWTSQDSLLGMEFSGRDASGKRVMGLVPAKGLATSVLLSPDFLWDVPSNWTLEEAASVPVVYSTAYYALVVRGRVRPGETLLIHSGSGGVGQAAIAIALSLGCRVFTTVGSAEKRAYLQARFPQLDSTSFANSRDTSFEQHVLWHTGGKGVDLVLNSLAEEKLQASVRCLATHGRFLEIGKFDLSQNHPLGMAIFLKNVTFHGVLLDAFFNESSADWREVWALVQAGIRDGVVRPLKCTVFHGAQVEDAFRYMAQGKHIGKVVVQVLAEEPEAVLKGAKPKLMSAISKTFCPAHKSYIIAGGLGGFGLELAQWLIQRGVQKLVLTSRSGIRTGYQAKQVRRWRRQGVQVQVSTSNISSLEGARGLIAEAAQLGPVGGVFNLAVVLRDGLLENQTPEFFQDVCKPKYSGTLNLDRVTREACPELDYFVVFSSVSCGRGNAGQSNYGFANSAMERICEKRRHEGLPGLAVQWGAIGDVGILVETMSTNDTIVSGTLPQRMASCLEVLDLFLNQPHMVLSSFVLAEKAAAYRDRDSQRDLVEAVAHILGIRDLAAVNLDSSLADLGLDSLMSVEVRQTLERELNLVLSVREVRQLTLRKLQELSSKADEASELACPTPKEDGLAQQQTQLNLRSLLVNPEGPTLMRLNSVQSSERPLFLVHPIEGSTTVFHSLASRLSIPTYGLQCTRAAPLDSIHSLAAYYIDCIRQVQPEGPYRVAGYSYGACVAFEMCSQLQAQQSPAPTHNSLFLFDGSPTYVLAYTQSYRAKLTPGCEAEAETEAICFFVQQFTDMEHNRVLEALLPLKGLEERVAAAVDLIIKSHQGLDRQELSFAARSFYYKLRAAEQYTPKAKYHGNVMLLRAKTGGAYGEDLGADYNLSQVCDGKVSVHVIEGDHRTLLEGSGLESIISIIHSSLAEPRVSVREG

| inhibition at 100 µM | SMILES | IC50, inhibition of human Fatty Acid Synthase (FAS enzyme assay, IC50 from fitted sigmoid curves) |
| --- | --- | --- |
| 96.7% | CCC(=O)N1CC[C@H](NC(=O)Nc2cc(C(=O)N3CCC(c4ccc(C#N)cc4)CC3)ccc2C)C1 [Example 220, 3-[5-[4-(4-cyanophenyl)piperidine-1-carbonyl]-2-methyl-phenyl]-1-[(3S)-1-propanoylpyrrolidin-3-yl]urea] | – |
| 95.4% | Cc1ccc(C(=O)N2CCC(c3ccc(C(F)(F)F)cc3)CC2)cc1NC(=O)NCCNS(C)(=O)=O [Example 341, 3-(2-methanesulfonamidoethyl)-1-[2-methyl-5-[4-[4-(trifluoromethyl)phenyl]piperidine-1-carbonyl]phenyl]urea] | – |
| 89.9% | Cc1ccc(C(=O)N2CCC(c3ccc(C#N)cc3)CC2)cc1NC(=O)NCC(N)=O [Example 58, 2-[[5-[4-(4-cyanophenyl)piperidine-1-carbonyl]-2-methyl-phenyl]carbamoylamino]acetamide] | – |
| 68.4% | CC(C)NC(=O)Nc1cc(C(=O)N2CCC(c3ccc(C#N)cc3)CC2)ccc1F [Example 11, 3-[5-[4-(4-cyanophenyl)piperidine-1-carbonyl]-2-fluoro-phenyl]-1-propan-2-yl-urea] | – |
| 99.9% | Cc1ccc(C(=O)N2CCC(c3ccc(C#N)cc3)CC2)cc1NC(=O)NCc1ccc(S(C)(=O)=O)cc1 [Example 243, 1-[5-[4-(4-cyanophenyl)piperidine-1-carbonyl]-2-methyl-phenyl]-3-[(4-methylsulfonylphenyl)methyl]urea] | – |
| 84.3% | Cc1ccc(C(=O)N2CCC(c3ccc(C#N)cc3)CC2)cc1NC(=O)NC1(CO)CCCC1 [Example 194, 1-[5-[4-(4-cyanophenyl)piperidine-1-carbonyl]-2-methyl-phenyl]-3-[1-(hydroxymethyl)cyclopentyl]urea] | – |
| 101% | Cc1ccc(C(=O)N2CCC(c3ccc(C#N)cc3)CC2)cc1NC(=O)NC1CCN(C(=O)C(C)C)CC1 [Example 283, 1-[5-[4-(4-cyanophenyl)piperidine-1-carbonyl]-2-methyl-phenyl]-3-[1-(2-methylpropanoyl)-4-piperidyl]urea] | – |
| 90.1% | COCC(C)NC(=O)Nc1cc(C(=O)N2CCC(c3ccc(C#N)cc3)CC2)ccc1C (stereo not shown) [Example 155, 1-[5-[4-(4-cyanophenyl)piperidine-1-carbonyl]-2-methyl-phenyl]-3-(1-methoxypropan-2-yl)urea] | – |
| – | Cc1ccc(C(=O)N2CCC(c3ccc(C#N)cc3)CC2)cc1NC(=O)N1CCS(=O)(=O)CC1 [N-[5-[4-(4-cyanophenyl)piperidine-1-carbonyl]-2-methylphenyl]-1,1-dioxo-1,4-thiazinane-4-carboxamide] | do not have IC50s in the range of about 0.001 μM to about 30 μM |
| 96.2% | Cc1ccc(C(=O)N2CCC(c3ccc(C#N)cc3)CC2)cc1NC(=O)NCCCn1cccn1 [Example 244, 1-[5-[4-(4-cyanophenyl)piperidine-1-carbonyl]-2-methyl-phenyl]-3-(3-pyrazol-1-ylpropyl)urea] | – |
| 87.9% | CSc1ccc(C(=O)N2CCC(c3ccc(C#N)cc3)CC2)cc1NC(=O)NC(C)C [Example 362, 3-[5-[4-(4-cyanophenyl)piperidine-1-carbonyl]-2-methylsulfanylphenyl]-1-propan-2-ylurea] | – |
| 89.9% | Cc1ccc(C(=O)N2CCC(c3ccc(C#N)cc3)CC2)cc1NC(=O)NCc1ncco1 [Example 269, 1-[5-[4-(4-cyanophenyl)piperidine-1-carbonyl]-2-methyl-phenyl]-3-(1,3-oxazol-2-ylmethyl)urea] | – |
| 83.7% | Cc1ccc(C(=O)N2CCC(c3ccc(C#N)cc3)CC2)cc1NC(=O)NCCCN(C)C [Example 138, 1-[5-[4-(4-cyanophenyl)piperidine-1-carbonyl]-2-methyl-phenyl]-3-(3-dimethylaminopropyl)urea] | – |
| 92.3% | COc1ccc([C@@H](C)NC(=O)Nc2cc(C(=O)N3CCC(c4ccc(C#N)cc4)CC3)ccc2C)cc1 [Example 84, 1-[5-[4-(4-cyanophenyl)piperidine-1-carbonyl]-2-methyl-phenyl]-3-[(1R)-1-(4-methoxyphenyl)ethyl]urea] | – |
| 94% | CCc1ccc(C(=O)N2CCC(c3ccc(C#N)cc3)CC2)cc1NC(=O)NC(C)C [Example 201, 1-[5-[4-(4-cyanophenyl)piperidine-1-carbonyl]-2-ethyl-phenyl]-3-propan-2-yl-urea] | – |
| 94% | Cc1ccc(C(=O)N2CCC(c3ccc(C#N)cc3)CC2)cc1NC(=O)N[C@H]1CC[C@H](NS(=O)(=O)N(C)C)C1 [Example 323, 1-[5-[4-(4-cyanophenyl)piperidine-1-carbonyl]-2-methyl-phenyl]-3-[(1S,3S)-3-(dimethylsulfamoylamino)cyclopentyl]urea] | – |
| 92.5% | Cc1ccc(C(=O)N2CCC(c3ccc(C#N)cc3)CC2)cc1NC(=O)NCc1cnccn1 [Example 293, 1-[5-[4-(4-cyanophenyl)piperidine-1-carbonyl]-2-methyl-phenyl]-3-(pyrazin-2-ylmethyl)urea] | – |

| inhibition at 100 µM | SMILES | IC50, inhibition of human Fatty Acid Synthase (FAS enzyme assay, IC50 from fitted sigmoid curves) |
| --- | --- | --- |
| 88.2% | Cc1ccc(C(=O)N2CCC(c3ccc(C#N)cc3)CC2)cc1NC(=O)NCCCOC(C)C [Example 153, 1-[5-[4-(4-cyanophenyl)piperidine-1-carbonyl]-2-methyl-phenyl]-3-(3-propan-2-yloxypropyl)urea] | – |
| 91.8% | Cc1ccc(C(=O)N2CCC(c3ccc(C#N)cc3)CC2)cc1NC(=O)NCc1ccc(C#N)cc1 [Example 33, 3-[(4-cyanophenyl)methyl]-1-[5-[4-(4-cyanophenyl)piperidine-1-carbonyl]-2-methyl-phenyl]urea] | – |
| 92.6% | Cc1ccc(C(=O)N2CCC(c3ccc(C(F)(F)F)cc3)CC2)cc1NC(=O)NCCN(C)C [Example 334, 3-(2-dimethylaminoethyl)-1-[2-methyl-5-[4-[4-(trifluoromethyl)phenyl]piperidine-1-carbonyl]phenyl]urea] | – |
| 81.3% | CC(=O)NCCNC(=O)Nc1cc(C(=O)N2CCC(c3ccc(F)cc3)CC2)ccc1C [Example 338, N-[2-[[5-[4-(4-fluorophenyl)piperidine-1-carbonyl]-2-methyl-phenyl]carbamoylamino]ethyl]acetamide] | – |
| 94.4% | Cc1ccc(C(=O)N2CCC(c3ccc(C#N)cc3)CC2)cc1NC(=O)N[C@H]1CC[C@H](NS(C)(=O)=O)C1 [Example 320, 1-[5-[4-(4-cyanophenyl)piperidine-1-carbonyl]-2-methyl-phenyl]-3-[(1S,3S)-3-methanesulfonamidocyclopentyl]urea] | – |
| 93.1% | COC(=O)C1CCC(NC(=O)Nc2cc(C(=O)N3CCC(c4ccc(C#N)cc4)CC3)ccc2C)CC1 (stereo not shown) [Example 181, Methyl 4-[[5-[4-(4-cyanophenyl)piperidine-1-carbonyl]-2-methyl-phenyl]carbamoylamino]cyclohexane-1-carboxylate] | – |
| 96.8% | CC(=O)N1CC[C@H](NC(=O)Nc2cc(C(=O)N3CCC(c4ccc(C#N)cc4)CC3)ccc2C)C1 [Example 277, 3-[(3S)-1-acetylpyrrolidin-3-yl]-1-[5-[4-(4-cyanophenyl)piperidine-1-carbonyl]-2-methyl-phenyl]urea] | – |
| 97% | Cc1ccc(C(=O)N2CCC(c3ccc(C#N)cc3)CC2)cc1NC(=O)N[C@@H]1CCNC1 [Example 212, 1-[5-[4-(4-cyanophenyl)piperidine-1-carbonyl]-2-methyl-phenyl]-3-[(3R)-pyrrolidin-3-yl]urea] | – |
| 86.5% | Cc1ccc(C(=O)N2CCC(c3ccc(C#N)cc3)CC2)cc1NC(=O)NCc1ccccc1F [Example 34, 1-[5-[4-(4-cyanophenyl)piperidine-1-carbonyl]-2-methyl-phenyl]-3-[(2-fluorophenyl)methyl]urea] | – |
| 92.2% | Cc1cccc(CNC(=O)Nc2cc(C(=O)N3CCC(c4ccc(C#N)cc4)CC3)ccc2C)c1 [Example 54, 3-[5-[4-(4-cyanophenyl)piperidine-1-carbonyl]-2-methyl-phenyl]-1-[(3-methylphenyl)methyl]urea] | – |
| 87.9% | Cc1ccc(C(=O)N2CCC(c3ccc(C#N)cc3)CC2)cc1NC(=O)NCCCCNC(=O)OC(C)(C)C [Example 69, tert-butyl N-[4-[[5-[4-(4-cyanophenyl)piperidine-1-carbonyl]-2-methyl-phenyl]carbamoylamino]butyl]carbamate] | – |
| 96.9% | Cc1cc(C)c(C(=O)N2CCC(c3ccc(C#N)cc3)CC2)cc1NC(=O)NCc1ccccn1 [Example 409, 1-[5-[4-(4-cyanophenyl)piperidine-1-carbonyl]-2,4-dimethylphenyl]-3-(pyridin-2-ylmethyl)urea] | – |
| 102% | Cc1ccc(C(=O)N2CCC(c3ccc(C#N)cc3)CC2)cc1NC(=O)NCc1ccn(C)n1 [Example 290, 1-[5-[4-(4-cyanophenyl)piperidine-1-carbonyl]-2-methyl-phenyl]-3-[(1-methylpyrazol-3-yl)methyl]urea] | – |
| 86.7% | COc1ccc(C2CCN(C(=O)c3ccc(C)c(NC(=O)NC(C)C)c3)CC2)cc1 [Example 328, 1-[5-[4-(4-methoxyphenyl)piperidine-1-carbonyl]-2-methyl-phenyl]-3-propan-2-yl-urea] | – |
| 79.7% | Cc1ccc(C(=O)N2CCC(c3ccc(C#N)cc3)CC2)cc1NC(=O)N1CCOCC1 [Example 2, N-[5-[4-(4-cyanophenyl)piperidine-1-carbonyl]-2-methyl-phenyl]morpholine-4-carboxamide] | – |
| 96.1% | Cc1ccc(C(=O)N2CCC(c3ccc(C#N)cc3)CC2)cc1NC(=O)NCCNC(=O)C1CCCCC1 [Example 175, N-[2-[[5-[4-(4-cyanophenyl)piperidine-1-carbonyl]-2-methyl-phenyl]carbamoylamino]ethyl]cyclohexanecarboxamide] | – |
| 99.3% | Cc1ccc(C(=O)N2CCC(c3ccc(C#N)cc3)CC2)cc1NC(=O)N[C@@H](CCS(C)(=O)=O)C(=O)O [Example 240, (2S)-2-[[5-[4-(4-cyanophenyl)piperidine-1-carbonyl]-2-methyl-phenyl]carbamoylamino]-4-methylsulfonyl-butanoic acid] | – |

From patent US20090118332A1, “Therapeutic Agents - 551” (AstraZeneca AB, priority 2006, published 2009)
